Reference: ChEMBL document CHEMBL2074413, “Effect of cisplatin-induced acute renal failure on bioavailability and intestinal secretion of quinolone antibacterial drugs in rats” (Pharm Res, 2004)

Assays:
Type in all cases: functional, cell-based
[1] = target: T1, ATP-dependent translocase ABCB1 (Homo sapiens, UniProt P08183); test: TP_TRANSPORTER: transepithelial transport (basal to apical) of Ciprofloxacin at 2uM in LLC-GA5-COL150 cells; conditions: pig, llc-ga5-col150, 2 µM
[2] = target: T1, ATP-dependent translocase ABCB1; test: TP_TRANSPORTER: transepithelial transport (basal to apical) of Digoxin at a concentration of 58.8nM in LLC-GA5-COL150 cells; conditions: pig
[3] = target: T1, ATP-dependent translocase ABCB1; test: TP_TRANSPORTER: transepithelial transport (basal to apical) of Grepafloxacin at a concentration of 5uM in LLC-GA5-COL150 cells; conditions: pig, llc-ga5-col150, 5 µM
[4] = target: T1, ATP-dependent translocase ABCB1; test: TP_TRANSPORTER: transepithelial transport (basal to apical) of Levofloxacin at a concentration of 5uM in LLC-GA5-COL150 cells; conditions: pig, llc-ga5-col150, 5 µM

T1 sequence (P08183 whole entry): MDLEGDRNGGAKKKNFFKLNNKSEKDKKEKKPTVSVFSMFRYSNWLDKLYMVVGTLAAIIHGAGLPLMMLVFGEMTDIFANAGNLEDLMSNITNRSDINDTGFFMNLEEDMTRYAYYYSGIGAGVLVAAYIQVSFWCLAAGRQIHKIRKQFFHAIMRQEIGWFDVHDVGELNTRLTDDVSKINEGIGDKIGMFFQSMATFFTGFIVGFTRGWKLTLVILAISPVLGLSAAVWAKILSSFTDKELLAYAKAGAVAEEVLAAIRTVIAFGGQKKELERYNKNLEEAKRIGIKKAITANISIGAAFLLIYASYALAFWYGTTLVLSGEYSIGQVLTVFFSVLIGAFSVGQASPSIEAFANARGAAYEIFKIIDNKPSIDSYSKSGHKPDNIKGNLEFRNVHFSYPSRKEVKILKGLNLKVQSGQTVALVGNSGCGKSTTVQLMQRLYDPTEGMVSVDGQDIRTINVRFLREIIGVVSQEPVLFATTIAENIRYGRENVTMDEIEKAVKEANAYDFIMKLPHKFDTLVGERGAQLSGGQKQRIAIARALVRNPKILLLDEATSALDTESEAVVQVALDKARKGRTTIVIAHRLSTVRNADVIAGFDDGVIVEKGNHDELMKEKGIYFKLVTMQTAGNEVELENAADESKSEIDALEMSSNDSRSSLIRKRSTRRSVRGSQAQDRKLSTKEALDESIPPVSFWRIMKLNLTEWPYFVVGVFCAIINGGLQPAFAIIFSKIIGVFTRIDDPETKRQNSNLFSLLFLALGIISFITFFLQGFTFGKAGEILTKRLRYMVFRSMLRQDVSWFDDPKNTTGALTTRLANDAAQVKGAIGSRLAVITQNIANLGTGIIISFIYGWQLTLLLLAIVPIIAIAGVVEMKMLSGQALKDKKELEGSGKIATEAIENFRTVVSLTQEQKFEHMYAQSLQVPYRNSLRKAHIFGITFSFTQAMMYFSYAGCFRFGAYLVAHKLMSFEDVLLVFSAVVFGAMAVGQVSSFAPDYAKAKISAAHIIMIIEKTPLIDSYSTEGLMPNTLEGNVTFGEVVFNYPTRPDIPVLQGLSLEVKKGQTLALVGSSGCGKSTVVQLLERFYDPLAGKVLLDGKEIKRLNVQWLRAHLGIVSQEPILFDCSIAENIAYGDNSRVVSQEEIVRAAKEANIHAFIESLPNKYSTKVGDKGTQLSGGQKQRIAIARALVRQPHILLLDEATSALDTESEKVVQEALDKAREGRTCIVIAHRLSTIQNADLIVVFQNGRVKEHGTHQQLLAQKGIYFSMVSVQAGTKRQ

SMILES: O=C(O)c1cn(C2CC2)c2cc(N3CCNCC3)c(F)cc2c1=O [CIPROFLOXACIN]
- Activity [1]: is not a substrate [-]

SMILES: C[C@H]1O[C@@H](O[C@H]2[C@@H](O)C[C@H](O[C@H]3[C@@H](O)C[C@H](O[C@H]4CC[C@@]5(C)[C@H](CC[C@@H]6[C@@H]5C[C@@H](O)[C@]5(C)[C@@H](C7=CC(=O)OC7)CC[C@]65O)C4)O[C@@H]3C)O[C@@H]2C)C[C@H](O)[C@@H]1O [DIGOXIN]
- Activity [2]: substrate [+]

SMILES: Cc1c(F)c(N2CCNC(C)C2)cc2c1c(=O)c(C(=O)O)cn2C1CC1 (centres undefined) [GREPAFLOXACIN]
- Activity [3]: substrate [+]

SMILES: C[C@H]1COc2c(N3CCN(C)CC3)c(F)cc3c(=O)c(C(=O)O)cn1c23.C[C@H]1COc2c(N3CCN(C)CC3)c(F)cc3c(=O)c(C(=O)O)cn1c23.O [LEVOFLOXACIN]
- Activity [4]: substrate [+]
